The results in this text go back to patent US10005767B2, “Compositions and methods for inhibition of the JAK pathway” (Rigel Pharmaceuticals, Inc., priority 2009, dated 2018).

As a reminder, the IC50 is the midpoint of a concentration-inhibition curve.

Counter-ions that a name gives are not always drawn.

In the first assay the test system is human primary T-cells, IL-2 stimulated proliferation (JAK-1 and JAK-3 dependent; reported as JAK3 activity). As to the kind of experiment: Human primary T-cell proliferation stimulated by IL-2 (Example 3). The format is cell-based. The conditions noted are these: Homo sapiens, T-cell, tested under conditions described in Example 3 (IL-2 stimulated human primary T-cell proliferation); read-out: ability to inhibit JAK3 activity, IC50 range (Table V). The essentials:
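Peripheral-blood human T-cells pre-activated via TCR/CD28, IL-2-starved overnight, then cultured 72 h at 37 °C with compound in Yssel's medium containing IL-2 (80 U/mL in cell suspension). Proliferation read as viable-cell ATP by CellTiter-Glo luminescence; reduction versus control taken as JAK pathway inhibition.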
Turning to `Cc1cnc(Nc2ccc(C(N)=O)c(N3CCCC3)c2)nc1Nc1ccc2oc(=O)[nH]c2c1` [Compound I-136, 4-[5-Methyl-4-(2-oxo-2,3-dihydro-benzooxazol-5-ylamino)-pyrimidin-2-ylamino]-2-pyrrolidin-1-yl-benzamide], the IC50 was under 500 nM.
Same read-out and setting: to `Cc1cnc(Nc2cc(F)cc(N3CCOCC3)c2)nc1Nc1ccc2oc(=O)[nH]c2c1` [Compound I-240, 5-(2-(3-fluoro-5-morpholinophenylamino)-5-methylpyrimidin-4-ylamino)benzo[d]oxazol-2(3H)-one] belongs under 500 nM; to `Cc1cnc(Nc2ccnc(N3CCN(C)CC3)c2)nc1Nc1ccc2oc(=O)[nH]c2c1` [IV-8, N4-(benzo[d]oxazol-2(3H)-on-5-yl)-N2-[2-(4-methylpiperazino)pyridin-4-yl]-5-methylpyrimidine-2,4-diamine], over 10000 nM; to `Cc1cnc(Nc2cc(C)c(F)c(C)c2)nc1Nc1cc(C)c2oc(=O)[nH]c2c1` [Compound I-476, 5-(2-(4-fluoro-3,5-dimethylphenylamino)-5-methylpyrimidin-4-ylamino)-7-methylbenzo[d]oxazol-2(3H)-one], over 10000 nM.
Consider `COc1ncc(Nc2ncc(C)c(Nc3ccc4oc(=O)[nH]c4c3)n2)cc1C(F)(F)F` [II-147, N2-(2-methoxy-3-trifluoromethylpyridin-5-yl)-5-methyl-N4-(2-oxo-2,3-dihydro-1,3-benzoxazol-5-yl)-2,4-pyrimidinediamine], for which the IC50 is under 500 nM.
Still for that read-out and setting: the figure for `Cc1cnc(Nc2ccc(N3CCC(NCC4CC4)C3)nc2)nc1Nc1ccc2oc(=O)[nH]c2c1` (centres unmarked) [II-94, 5-(2-(6-(3-(cyclopropylmethylamino)pyrrolidin-1-yl)pyridin-3-ylamino)-5-methylpyrimidin-4-ylamino)benzo[d]oxazol-2(3H)-one] is under 500 nM; for `Cc1cnc(Nc2ccc(C(=O)N3CCCC3)cc2)nc1Nc1ccc2oc(=O)[nH]c2c1` [Compound I-247, 5-(5-methyl-2-(4-(pyrrolidine-1-carbonyl)phenylamino)pyrimidin-4-ylamino)benzo[d]oxazol-2(3H)-one] it is under 500 nM; for `Cc1cc(Nc2ncc(C)c(Nc3ccc4oc(=O)[nH]c4c3)n2)ccc1C(C)C` [Compound I-166, 5-[2-(4-Isopropyl-3-methyl-phenylamino)-5-methyl-pyrimidin-4-ylamino]-3H-benzooxazol-2-one] it is under 500 nM.
The same measure, in the same setting: the figure for `Cc1cnc(Nc2ccc(N3C[C@H]4C[C@@H]3CO4)nc2)nc1Nc1ccc2oc(=O)[nH]c2c1` [II-139, 5-methyl-N2-{2-[(1R,4R)-2-oxa-5-azabicyclo[2.2.1]heptan-5-yl]pyridin-5-yl}-N4-(2-oxo-2,3-dihydro-1,3-benzoxazol-5-yl)-2,4-pyrimidinediamine] is under 500 nM; for `Cc1cnc(Nc2ccc(C(C)N3CCOCC3)cc2)nc1Nc1ccc2oc(=O)[nH]c2c1` (centres unmarked) [Compound I-204, 5-(5-methyl-2-(4-(1-morpholinoethyl)phenylamino)pyrimidin-4-ylamino)benzo[d]oxazol-2(3H)-one] it is under 500 nM.
`Cc1cnc(Nc2ccc(C(N)=O)c(Cl)c2)nc1Nc1ccc2oc(=O)[nH]c2c1` [Compound I-141, 2-Chloro-4-[5-methyl-4-(2-oxo-2,3-dihydro-benzooxazol-5-ylamino)-pyrimidin-2-ylamino]-benzamide trifluoroacetic acid salt]: the IC50 is under 500 nM.
Still for that read-out and setting: to `Cc1cnc(Nc2ccc(C(N)=O)cc2)nc1Nc1ccc2oc(=O)[nH]c2c1` [Compound I-3, N4-(benzo[d]oxazol-2(3H)-on-5-yl)-N2-(4-aminocarbonylphenyl)-5-methylpyrimidine-2,4-diamine] belongs under 500 nM; to `Cc1cnc(Nc2cccc3c2OC(F)(F)O3)nc1Nc1ccc2oc(=O)[nH]c2c1` [IV-11, 5-[2-(2,2-Difluoro-benzo[1,3]dioxol-4-ylamino)-5-methyl-pyrimidin-4-ylamino]-3H-benzooxazol-2-one], under 500 nM; to `CCN(CC)CCOc1ccc(Nc2ncc(C)c(Nc3ccc4oc(=O)[nH]c4c3)n2)cc1` [Compound I-449, 5-{2-[4-(2-Diethylamino-ethoxy)-phenylamino]-5-methyl-pyrimidin-4-ylamino}-3H-benzooxazol-2-one], under 500 nM.
With `CCN1CCN(c2ncc(Nc3ncc(C)c(Nc4ccc5oc(=O)[nH]c5c4)n3)cc2F)CC1` [II-114, N4-(benzo[d]oxazolin-2(3H)-one-5-yl)-N2-[2-(4-ethylpiperazin-1-yl)-3-fluoropyridine-5-yl]-5-methyl-2,4-pyrimidinediamine], the IC50 is under 500 nM.
As for `Cc1cnc(Nc2ccc(N3CCC(C)(C)CC3)nc2)nc1Nc1ccc2oc(=O)[nH]c2c1` [II-60, 5-(2-(6-(4,4-dimethylpiperidin-1-yl)pyridin-3-ylamino)-5-methylpyrimidin-4-ylamino)benzo[d]oxazol-2(3H)-one], the IC50 is under 500 nM.

The assay is the same for the next values; noted with them: tested under conditions described in Example 3 (IL-2 stimulated human primary T-cell proliferation); read-out: ability to inhibit JAK3 activity, IC50 range (Table V).
For `Cc1cnc(Nc2ccc(S(C)(=O)=O)cc2)nc1Nc1ccc2[nH]c(=O)oc2c1` [Compound I-101, N2-((4-methylsulfonyl)phenyl)-N4-(2-oxo-2,3-dihydrobenzo[d]oxazol-6-yl)-5-methylpyrimidine-2,4-diamine], the IC50 was under 500 nM.
Regarding `Cc1cnc(Nc2cccc(N3CCOCC3)c2)nc1Nc1ccc2oc(=O)[nH]c2c1` [Compound I-46, N4-(benzo[d]oxazol-2(3H)-on-5-yl)-N2-((3-morpholinyl)phenyl)-5-methylpyrimidine-2,4-diamine], the IC50 is under 500 nM.
Same read-out and setting: the figure for `CCc1cc(Nc2ncc(C)c(Nc3ccc4oc(=O)[nH]c4c3)n2)cc(C#N)c1Cl` [Compound I-383, N2-(4-chloro-3-cyano-5-ethyl)phenyl-5-methyl-N4-(2-oxo-2,3-dihydro-1,3-benzoxazol-5-yl)-2,4-pyrimidinediamine] is 500 to 5000 nM; for `Cc1cnc(Nc2ccc(OCC(=O)OC(C)C)cc2)nc1Nc1ccc2oc(=O)[nH]c2c1` [Compound I-317, N2-[4-(isopropoxycarbonylmethoxy)]phenyl-5-methyl-N4-(2-oxo-2,3-dihydro-1,3-benzoxazol-5-yl)-2,4-pyrimidinediamine] it is under 500 nM.
Same read-out and setting: the figure for `Cc1cnc(Nc2cnc(N3CCN4CCC[C@@H]4C3)c(F)c2)nc1Nc1ccc2oc(=O)[nH]c2c1` [II-113, N4-(benzo[d]oxazolin-2(3H)-one-5-yl)-N2-{2-[(8R)-1,4-diazabicyclo[4.3.0]nonane-1-yl]-3-fluoropyridine-5-yl}-5-methyl-2,4-pyrimidinediamine] is under 500 nM.
The same measure, in the same setting: the figure for `Cc1cnc(Nc2ccc(-c3ccncc3)c(C(F)(F)F)c2)nc1Nc1ccc2oc(=O)[nH]c2c1` [Compound I-330, 5-methyl-N4-(2-oxo-2,3-dihydro-1,3-benzoxazol-5-yl)-N2-[4-(pyridin-4-yl)-3-trifluoromethyl]phenyl-2,4-pyrimidinediamine] is 5000 to 10000 nM; for `Cc1cnc(Nc2ccc(C#N)cc2)nc1Nc1ccc2[nH]c(=O)[nH]c2c1` [Compound I-29, N4-(benzimidazolin-2-on-5-yl)-N2-(4-cyanophenyl)-5-methylpyrimidine-2,4-diamine] it is over 10000 nM.
Take `Cc1cnc(Nc2cccc(OCC(=O)N3CCOCC3)c2)nc1Nc1ccc2oc(=O)[nH]c2c1` [Compound I-320, 5-methyl-N2-[3-(morpholinocarbonylmethoxy)]phenyl-N4-(2-oxo-2,3-dihydro-1,3-benzoxazol-5-yl)-2,4-pyrimidinediamine]: the IC50 is under 500 nM.
As for `Cc1cnc(Nc2ccc(NS(C)(=O)=O)cc2)nc1Nc1ccc2c(c1)oc(=O)n2C` [Compound I-74, N2-((4-methylsulfonylamino)phenyl)-N4-(3-methyl-2-oxo-2,3-dihydrobenzo[d]oxazol-6-yl)-5-methylpyrimidine-2,4-diamine], the IC50 was under 500 nM.
Same read-out and setting: the figure for `Cc1cnc(Nc2ccc(C#N)c(OC(F)F)c2)nc1Nc1ccc2oc(=O)[nH]c2c1` [Compound I-434, N2-(4-cyano-3-difluoromethoxy)phenyl-5-methyl-N4-(2-oxo-2,3-dihydro-1,3-benzoxazol-5-yl)-2,4-pyrimidinediamine] is under 500 nM; for `CS(=O)(=O)c1ccc(Nc2ncc(F)c(Nc3ccc4oc(=O)[nH]c4c3)n2)cc1` [Compound I-21] it is under 500 nM.
The same measure, in the same setting: the figure for `Cc1cnc(Nc2ccc(N3CCCC3)c(C#N)c2)nc1Nc1ccc2oc(=O)[nH]c2c1` [Compound I-310, N2-[3-cyano-4-(pyrrolidin-1-yl)]phenyl-5-methyl-N4-(2-oxo-2,3-dihydro-1,3-benzoxazol-5-yl)-2,4-pyrimidinediamine] is under 500 nM; for `Cc1cnc(Nc2ccc(N3CCN(C)CC3)nc2)nc1Nc1ccc2c(c1)n(C)c(=O)n2C` [II-20, N4-(1,3-dimethylbenzimidazolin-2-on-5-yl)-N2-[2-(4-methylpiperazino)pyridin-5-yl]-5-methylpyrimidine-2,4-diamine] it is under 500 nM.
For the molecule `Cc1cnc(Nc2cnc(N3CCN4CCC[C@H]4C3)c(C(F)(F)F)c2)nc1Nc1ccc2oc(=O)[nH]c2c1` [II-124, N2-[2-(S-1,4-diazabicylco[4.3.0]nonan-4-yl)-3-trifluoromethylpyridin-5-yl]-5-methyl-N4-(2-oxo-2,3-dihydro-1,3-benzoxazol-5-yl)-2,4-pyrimidinediamine], the IC50 is under 500 nM.
On the same count and under the same terms, to `Cc1cnc(Nc2ccc(Cl)c(N3CC(C)N(C)C(C)C3)c2)nc1Nc1ccc2oc(=O)[nH]c2c1` (centres unmarked) [Compound I-284, N2-[4-chloro-3-(3,4,5-trimethylpiperazino)]phenyl-5-methyl-N4-(2-oxo-2,3-dihydro-1,3-benzoxazol-5-yl)-2,4-pyrimidinediamine] belongs under 500 nM; to `Cc1cnc(Nc2ccc(OC(F)F)c(F)c2)nc1Nc1ccc2oc(=O)[nH]c2c1` [Compound I-347, N2-(4-difluoromethoxy-3-fluoro)phenyl-5-methyl-N4-(2-oxo-2,3-dihydro-1,3-benzoxazol-5-yl)-2,4-pyrimidinediamine], under 500 nM.
